Data reported in patent US5179113A, “Treatment of central nervous disorders with imidazole compounds” (E. I. Du Pont de Nemours and Company, priority 1991, dated 1993).
“Also recorded” adds a separate entry of the source. Counter-ions that a name gives are not always drawn.

Assays:
[1] = test system: eight arm radial maze performance in rats; conditions: 3 mg/kg IP; Usinger et al. 1988; cited from earlier work
[2] = test system: release of ACh in entorhinal cortex from rat brain; conditions: in vitro; Barnes et al. 1989; cited from earlier work
AII-1 receptor = test: AII receptor antagonism, subtype AII-1, as stated; conditions: stated in words, no data
[3] = test system: male Sprague-Dawley rats (renin-induced amnesia); test: Renin-disrupted passive avoidance retention; assay type: in vivo, rat; conditions: for effect on renin-induced amnesia (in words): co-administered with renin IVT
Procedure: Experimentally naive male Sprague-Dawley rats […] (Charles River Breeding Laboratories, Kingston, N.Y.), weighing between 175 to 200 gm were used. The animals were housed four per cage (45.0(L)×20.0(H)×26.0(W) cm) with free access to food and water. They were maintained on a 12 h light/dark cycle (lights on 600 h) and at a room temperature of 22°±1° C. with relative humidity of 50±10%. The experimental sessions were conducted in a two-compartment passive avoidance box. One compartment, made of clear plastic with a perforated clear plastic floor, measured 21(L)×24.5(H)×17(W) cm and was illuminated with a 60 watt incandescent light bulb placed 36 cm above the floor. The other compartment, made of black plastic, measured 30.5(L)×20.3(H)×21.5(W) cm with a floor made of 4 mm stainless steel rods spaced 1.2 cm apart. A grid floor shocker (Coulbourn Instruments) was connected to the steel rods and provided scrambled footshock. The two compartments were separated by a solenoid-operated slide door (Lafayette Instrument Co., Lafayette, Ind.). An electronic counter (Coulbourn Instruments), triggered by the opening or closing of the slide door, recorded acquisition and retention latencies (latencies were defined as the time it took an animal to enter the dark compartment). Passive avoidance training began by placing the rat into the clear compartment of the two-compartment passive avoidance box. Following a 10 sec delay, the slide door to the dark compartment was raised. Once the rat moved completely into the dark compartment (all four paws on the shock grid floor) the slide door was lowered, and after a 10 sec delay, a 1.0 mA shock was applied to the grid floor for three sec. A second three sec shock was delivered after an additional 10 sec delay. The rats were immediately removed from the dark compartment and returned to their home cage. A retention test was given 24 h later. It proceeded in the same manner as the training session except that no shock was applied to the grid floor when the rats were provided access to the dark compartment for a maximum of 300 sec. […] All drugs were administered IVT 60 minutes prior to acquisition training in a volume of 5 μl. Doses are expressed as the free base weight of each compound.

[4] = test system: retention of a passive avoidance (PA) response in rats; conditions: injected into dorsal neostriatum; Morgan and Routtenberg 1977; cited from earlier work
[5] = test system: AII-2 receptors in the brain; test: Binding of AII antagonists to brain slices, AII-2 sites; conditions: majority of binding sites
[6] = test system: memory of previously learned tasks; conditions: EP 288,907; cited from earlier work
[7] = test system: AII receptor subtype-1 (AII-1); conditions: rat adrenal cortex; cited from earlier work
[8] = test system: AII receptor subtype-2 (AII-2); conditions: rat adrenal cortex; cited from earlier work
[9] = test system: AII-1 receptors in the brain; test: Binding of AII antagonists to brain slices, AII-1 sites; conditions: clusters of AII-1 sites
[10] = test system: AII in cerebrospinal fluid (CSF); conditions: renin into lateral ventricle; AII increased from 40; Koller et al. 1975; cited from earlier work

CCOC(=O)C(CCc1ccccc1)NC(C)C(=O)N1CC2(CC3CCC2CC3)CC1C(=O)O (stereo not drawn) [Hoe 288]
effect on muscarinic receptor blockade on performance [1]: partially antagonized the effects of muscarinic receptor blockade on performance

AI: AI, compared with AII in ACh release (DRVYIHPFHL; Angiotensin-1; UniProt P01019 25-34, looked up)
effect on potassium-stimulated release of ACh [2]: not AI

CCCc1nc(C(F)(F)F)c(CO)n1Cc1ccc(-c2ccccc2-c2nn[nH]n2)cc1 [Compound D, sodium salt of 2-n-propyl-5-hydroxymethyl-1-[(2'-(1H-tetrazol-5-yl)biphenyl-4-yl)methyl]-4-trifluoromethylimidazole]
AII-1 receptor antagonism (AII-1 receptor): AII-1 receptor antagonists | effect on renin-induced amnesia (in words) [3]: protected against the amnesia

NC(=O)[C@@H]1CCCN1C(=O)[C@H](Cc1cnc[nH]1)NC(=O)[C@@H]1CCC(=O)N1 [thyrotropin releasing hormone]
effect on retention of PA response [4]: no effect

[1-sarcosine, 8-threonine]angiotensin-II
effect on AII-induced reduction of ACh release [2]: antagonized

AII: Angiotensin-II, circulating hormone thought to act as a neuropeptide in the CNS (DRVYIHPF; Angiotensin-2; UniProt P01019 25-32, looked up)
effect on basal ACh levels [2]: without effects on basal levels | effect on retention of PA response [4]: disruption in retention of a PA response

lysine-8-vasopressin
effect on retention of PA response [4]: no effect

Cc1cc(Cn2cnc3c2CC(C(=O)O)N(C(=O)C(c2ccccc2)c2ccccc2)C3)ccc1N (stereo not drawn) [EXP655, 1-(4-amino-3-methylphenyl)methyl-5-diphenylacetyl-4,5,6,7-tetrahydro-1H-imidazo[4,5-c]pyridine-6-carboxylic acid]
effect on renin-induced amnesia (in words) [3]: much less effective in preventing the amnesia | sensitivity of AII-2 binding sites in brain [5]: EXP655-sensitive

NCCCC[C@H](OP(=O)(O)CCCCc1ccccc1)C(=O)N1CCC[C@H]1C(=O)O [SQ 29852]
effect on an anticholinergic effect on performance [6]: ameliorate, at least in part

C[C@H](CS)C(=O)N1CCC[C@H]1C(=O)O [captopril]
effect on renin-induced amnesia (in words) [3]: prevented

O[C@H](CS)[C@H](O)CS (racemic) [DTT, dithiothreitol]
sensitivity of AII-1 receptor to inactivation by DTT [7]: particularly sensitive to inactivation | sensitivity of AII-2 receptor to inactivation by DTT [8]: resistant to DTT inactivation | sensitivity of AII-1 binding sites in brain [9]: DTT-sensitive | sensitivity of AII-2 binding sites in brain [5]: DTT-insensitive

CCCc1nc(C(F)(F)F)c(C(=O)O)n1Cc1ccc(-c2ccccc2-c2nn[nH]n2)cc1 [Compound C, sodium salt of 2-n-propyl-1-[(2'-(1H-tetrazol-5-yl)biphenyl-4-yl)methyl]-4-trifluoromethylimidazole-5-carboxylic acid]
AII-1 receptor antagonism (AII-1 receptor): AII-1 receptor antagonists | effect on renin-induced amnesia (in words) [3]: protected against the amnesia

B1: renin: Renin (Sigma Chemicals), a stimulator of endogenous AII biosynthesis (protein, UniProt P00797 67-406, looked up)
Renin: LTLGNTTSSVILTNYMDTQYYGEIGIGTPPQTFKVVFDTGSSNVWVPSSKCSRLYTACVYHKLFDASDSSSYKHNGTELTLRYSTGTVSGFLSQDIITVGGITVTQMFGEVTEMPALPFMLAEFDGVVGMGFIEQAIGRVTPIFDNIISQGVLKEDVFSFYYNRDSENSQSLGGQIVLGGSDPQHYEGNFHYINLIKTGVWQIQMKGVSVGSSTLLCEDGCLALVDTGASYISGSTSSIEKLMEALGAKKRLFDYVVKCNEGPTLPDISFHLGGKEYTLTSADYVFQESYSSKKLCTLAIHAMDIPPPTGPTWALGATFIRKFYTEFDRRNNRIGFALAR
AII in CSF after renin [10]: about 5000 fmol per mL | memory deficit / amnesia produced by renin (in words) ([3]; IVT, passive avoidance): produces a reliable memory deficit in rats; also recorded: dose-related amnesia in a PA task
